In experiment [1] the target is T1, Histone deacetylase (Homo sapiens) (UniProt Q13547+O15379+Q9UBN7+Q92769+Q9UQL6+Q8WUI4+Q9BY41+Q96DB2+P56524+Q9UKV0+Q969S8). Put plainly: Inhibition of HDAC activity in human NB4 cells assessed as maximum acetylation of histone H3 at EC50 concentration after 24 hrs by Western blot analysis relative to control. In kind it is cell-based. Particulars: NB-4. (In general: A western blot detects proteins with antibodies after separation by electrophoresis.)

Another experiment deals with Tubulin. The experiment can be described thus: Inhibition of HDAC activity in human NB4 cells assessed as acetylated tubulin after 24 hrs by Western blot analysis. It is filed as cell-based. The note with it: nb-4.
In experiment [2] the test system is HCT-116. The experiment can be described thus: Antiproliferative activity against human HCT116 cells after 24 hrs by alamar blue assay. Particulars: HCT-116, 24 h. In kind it is functional, cell-based. A general note: The colour change of resazurin is a common sign of viable cells or microbes.
For experiment [3], the target named is T1, Histone deacetylase (Homo sapiens). The experiment can be described thus: Inhibition of HDAC activity in human NB4 cells assessed as maximum acetylated tubulin at EC50 concentration after 24 hrs by Western blot analysis relative to control. In kind it is cell-based. Particulars: NB-4.
For experiment [4], the target named is Histone deacetylase. The experiment can be described thus: Inhibition of HDAC activity in human NB4 cells assessed as acetylation of histone H4 after 24 hrs by Western blot analysis. The note with it: nb-4. It is filed as cell-based.
Experiment [5] relates to NB-4. The experiment can be described thus: Potentiation of all-trans retinoic acid-induced human NB4 cells differentiation after 72 hrs by NBT-reductase activity assay relative HDAC inhibitor alone. It is filed as functional.
Experiment [6] deals with T1, Histone deacetylase (Homo sapiens). The experiment can be described thus: Inhibition of HDAC activity in human NB4 cells assessed as maximum acetylation of histone H4 at EC50 concentration after 24 hrs by Western blot analysis relative to control. It is filed as cell-based. The note with it: NB-4.
Experiment [7] concerns the target Histone deacetylase. Put plainly: Inhibition of HDAC activity in human NB4 cells assessed as acetylation of histone H3 after 24 hrs by Western blot analysis. The note with it: nb-4. In kind it is cell-based.
In experiment [8] the test system is NB-4. Put plainly: Antiproliferative activity against human NB4 cells after 24 hrs by alamar blue assay. It is filed as functional, cell-based. Particulars: NB-4, 24 h.
Experiment [9] concerns HCT-116. The experiment can be described thus: Antitumor activity against human HCT116 cells xenografted in athymic nude mouse assessed as decrease in tumor volume at 25 mg/kg, iv administered once daily for 5 days per week by caliper measurement. Also noted: dose 25 mg/kg. In kind it is functional, organism-based. A general note: A xenograft is tissue or cells of one species grown in another, often human tumour cells in immunodeficient mice.

Experiment [10] can be described thus: Ratio of IC50 for HDAC2 to IC50 for HDAC6.
For experiment [11], the system named is HCT-116. The experiment can be described thus: Antitumor activity against human HCT116 cells xenografted in athymic nude mouse assessed as decrease in tumor volume at 12.5 mg/kg, iv administered once daily for 5 days per week by caliper measurement. It is filed as functional, organism-based. Also noted: dose 12.5 mg/kg.
For experiment [12], the system named is HCT-116. Put plainly: Antitumor activity against human HCT116 cells xenografted in athymic nude mouse assessed as decrease in tumor volume at 6.2 mg/kg, iv administered once daily for 5 days per week by caliper measurement. Also noted: dose 6.2 mg/kg. It is filed as functional, organism-based.

Calls of active or inactive are those of the source. The rule behind the calls is not given here.

On to `COc1ccc2c(c1)N(CCCCCC(=O)NO)C(=O)c1ccccc1N2`, for which the Ratio worked out at 7 in [1], 199 in [3], 1 with NB-4 [5] and 244 in experiment [6]. The EC50 (in general, the midpoint of the concentration-response curve) was 250 nM on Tubulin, 280 nM at Histone deacetylase [4] and 390 nM at Histone deacetylase [7]. Also, the IC50 (commonly the concentration that gives 50% inhibition) with HCT-116 [2] worked out at 360 nM; in the experiment on NB-4 [8], 140 nM.
Consider `COc1ccc2c(c1)N(CCCCCC(=O)NO)C(=O)c1ccccc1S2`, for which the Ratio in [1] was 12; in experiment [3], 47; in the experiment with NB-4 [5] it was 16; in experiment [6], 28. Moreover, the EC50 at Tubulin was found to be 130 nM; on Histone deacetylase [4] it was 150 nM; on Histone deacetylase [7] it was 190 nM. Moreover, the values for the IC50 in the experiment with HCT-116 [2] and in the experiment with NB-4 [8] were 90 nM and 30 nM, respectively. Further, the inhibition entry in the experiment on HCT-116 [9] was “Active”.
In the case of `CN1c2ccccc2C(=O)N(CCCCCC(=O)NO)c2ccccc21`, the Ratio in experiment [1] amounted to 10; in experiment [3], 40; in the experiment with NB-4 [5], 13; in [6], 14. For the same compound, the EC50 on Tubulin was 2740 nM; at Histone deacetylase [4], 2950 nM; on Histone deacetylase [7], 2650 nM. Also, the figures for the IC50 with HCT-116 [2] and in the experiment on NB-4 [8] were 8100 nM and 2460 nM, respectively.
For `COc1ccc2c(c1)N(CCCCCC(=O)NO)C(=O)c1ccccc1O2`, the Ratio was found to be 61 in experiment [1], 1780 in [3], 7 with NB-4 [5] and 206 in experiment [6]. The EC50 worked out at 90 nM at Tubulin, 320 nM at Histone deacetylase [4] and 200 nM on Histone deacetylase [7]. Moreover, the values for the IC50 in the experiment with HCT-116 [2] and in the experiment on NB-4 [8] were 310 nM and 140 nM, respectively.
On to `O=C(CCCCCN1C(=O)c2ccccc2S(=O)(=O)c2ccc(Cl)cc21)NO`, for which the Ratio was determined as 2110 in experiment [1], 8850 in experiment [3], 56 in the experiment with NB-4 [5] and 795 in experiment [6]. Further, the values for the EC50 at Tubulin, at Histone deacetylase [4] and on Histone deacetylase [7] were 40 nM, 60 nM and 30 nM, respectively. Besides, the IC50 with HCT-116 [2] turned out to be 30 nM; in the experiment on NB-4 [8], 20 nM.
In the case of `O=C(CCCCCN1C(=O)c2ccccc2Oc2ccc(Cl)cc21)NO`, the Ratio was 3 in experiment [1], 932 in experiment [3], 1 with NB-4 [5] and 9 in experiment [6]. Also, the EC50 on Tubulin came to 440 nM; at Histone deacetylase [4], 530 nM; on Histone deacetylase [7] it was 380 nM. Moreover, the values for the IC50 in the experiment on HCT-116 [2] and in the experiment with NB-4 [8] were 200 nM and 160 nM, respectively.
Turning to `COc1ccc2c(c1)N(CCCCCC(=O)NO)C(=O)c1ccccc1S2(=O)=O`, the Ratio in experiment [1] was determined as 4740; in experiment [3], 30600; in the experiment on NB-4 [5], 79; in [6], 1460. In addition, the EC50 at Tubulin was determined as 50 nM; at Histone deacetylase [4] it was 90 nM; on Histone deacetylase [7], 30 nM. Further, the IC50 in the experiment with HCT-116 [2] amounted to 40 nM; with NB-4 [8], 20 nM.
On to `O=C(CCCCCN1C(=O)c2ccccc2Nc2ccc(Cl)cc21)NO`, for which the Ratio was 31 in [1], 413 in experiment [3], 1 with NB-4 [5] and 78 in [6]. Besides, the EC50 at Tubulin worked out at 320 nM; at Histone deacetylase [4], 860 nM; on Histone deacetylase [7] it was 840 nM. Moreover, the IC50 in the experiment on HCT-116 [2] was 450 nM; in the experiment on NB-4 [8], 290 nM.
Take `O=C(CCCCCN1C(=O)c2ccccc2S(=O)(=O)c2ccccc21)NO`: the Ratio in experiment [1] was 342; in [3] it was 10700; with NB-4 [5], 14; in [6], 336. Also, the EC50 was 50 nM on Tubulin, 720 nM on Histone deacetylase [4] and 500 nM at Histone deacetylase [7]. In addition, the IC50 with HCT-116 [2] turned out to be 150 nM; in the experiment on NB-4 [8] it was 120 nM. The Ratio IC50 in experiment [10] came out at 48.
Turning to `O=C(CCCCCN1C(=O)c2ccccc2Sc2ccc(Cl)cc21)NO`, the Ratio in [1] is 200; in [3], 13200; in the experiment on NB-4 [5], 31; in experiment [6] it was 2330. The EC50 was 150 nM at Tubulin, 360 nM at Histone deacetylase [4] and 340 nM at Histone deacetylase [7]. In addition, the IC50 is 60 nM with HCT-116 [2] and 30 nM with NB-4 [8]. In the experiment on HCT-116 [11], the inhibition entry is “Active”. In addition, the inhibition result with HCT-116 [12] is “inactive”.
On to `O=C(CCCCCN1C(=O)c2ccccc2Nc2ccccc21)NO`, for which the Ratio in experiment [1] came to 188; in [3], 402; with NB-4 [5], 6; in experiment [6] it was 126. Moreover, the EC50 at Tubulin stood at 1170 nM; at Histone deacetylase [4] it was 1530 nM; on Histone deacetylase [7], 1300 nM. The IC50 with HCT-116 [2] is above 10000 nM; in the experiment with NB-4 [8], 730 nM.
In the case of `O=C(CCCCCN1C(=O)c2ccccc2Oc2ccccc21)NO`, the Ratio in [1] is 15; in experiment [3], 2630; in the experiment with NB-4 [5], 2; in experiment [6] it was 54. Also, the results for the EC50 on Tubulin, at Histone deacetylase [4] and at Histone deacetylase [7] were 290 nM, 3270 nM and 6240 nM, respectively. Further, the IC50 in the experiment with HCT-116 [2] was found to be 640 nM; in the experiment on NB-4 [8], 610 nM. For the same compound, the Ratio IC50 in experiment [10] was 61.
For `O=C(CCCCCN1C(=O)c2ccccc2Sc2ccccc21)NO`, the Ratio came out at 190 in experiment [1], 2000 in experiment [3], 5 with NB-4 [5] and 89 in experiment [6]. For the same compound, the EC50 was 370 nM on Tubulin, 430 nM on Histone deacetylase [4] and 460 nM at Histone deacetylase [7]. Further, the figures for the IC50 in the experiment on HCT-116 [2] and in the experiment on NB-4 [8] were 390 nM and 190 nM, respectively.

Values taken from ChEMBL document CHEMBL1687690, “Antiproliferative and differentiating activities of a novel series of histone deacetylase inhibitors” (ACS Med Chem Lett, 2010).
